Assay results from patent US10590113B2, “6-hydroxy-4-oxo-1,4-dihydropyrimidine-5-carboxamides as APJ agonists” (priority 2016, dated 2020).

target: T1, human APJ receptor (Homo sapiens, UniProt P35414); test: Intracellular cAMP Accumulation Assay (APJ hcAMP, HTRF); assay type: cell-based; details: not given
T1 construct: expressed in transfected cells; host or cells: HEK293
T1 sequence (P35414 1-380): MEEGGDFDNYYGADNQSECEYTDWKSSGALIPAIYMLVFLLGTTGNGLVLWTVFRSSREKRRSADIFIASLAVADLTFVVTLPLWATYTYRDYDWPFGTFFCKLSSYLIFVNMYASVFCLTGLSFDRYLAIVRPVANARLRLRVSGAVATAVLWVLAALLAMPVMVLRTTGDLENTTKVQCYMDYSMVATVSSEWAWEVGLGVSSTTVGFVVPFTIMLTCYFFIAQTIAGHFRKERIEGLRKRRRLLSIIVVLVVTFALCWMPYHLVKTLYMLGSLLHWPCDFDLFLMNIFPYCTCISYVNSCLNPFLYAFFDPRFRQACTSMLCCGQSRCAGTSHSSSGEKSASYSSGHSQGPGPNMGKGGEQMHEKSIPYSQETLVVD
In short: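 Stably transfected HEK293 cells (5,000/well) incubated 30 min at room temperature with serially diluted compound, […] and 2 μM forskolin. cAMP measured by HTRF after 60 min with detection reagents, quantified against a cAMP standard curve; EC50 from variable-slope sigmoidal fit of inhibition of forskolin-stimulated cAMP.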

Row | SMILES | EC50 [nM]
1 | CCCCc1nc(=O)c(C(=O)N2CCC(c3ccc(Cl)cn3)C2)c(O)n1-c1c(OC)cccc1OC (stereo not shown) [Example 1, 2-Butyl-5-(3-(5-chloropyridin-2-yl)pyrrolidine-1-carbonyl)-1-(2,6-dimethoxyphenyl)-6-hydroxypyrimidin-4(1H)-one] | 0.01 to 10
2 | C=CCCc1nc(=O)c(C(=O)N2CC[C@@H](c3ccccc3)C2)c(O)n1-c1c(OC)cccc1OC [Example 16, (S)-2-(but-3-en-1-yl)-3-(2,6-dimethoxyphenyl)-6-hydroxy-5-(3-phenylpyrrolidine-1-carbonyl)pyrimidin-4(3H)-one] | 0.01 to 10
3 | CCOCc1nc(=O)c(C(=O)N2CC[C@H](c3ccccc3)C2)c(O)n1-c1c(OC)cccc1OC [Example 23, (R)-1-(2,6-dimethoxyphenyl)-2-(ethoxymethyl)-6-hydroxy-5-(3-phenylpyrrolidine-1-carbonyl)pyrimidin-4(1H)-one] | 0.01 to 10
4 | C=CCCc1nc(=O)c(C(=O)N2CC[C@H](c3ccccc3)C2)c(O)n1-c1c(OC)cccc1OC [Example 27, (R)-2-(but-3-en-1-yl)-3-(2,6-dimethoxyphenyl)-6-hydroxy-5-(3-phenylpyrrolidine-1-carbonyl)pyrimidin-4(3H)-one] | 0.01 to 10
5 | CCOCc1nc(=O)c(C(=O)N2CC[C@@H](c3ccccc3)C2)c(O)n1-c1c(OC)cccc1OC [Example 29, (S)-1-(2,6-dimethoxyphenyl)-2-(ethoxymethyl)-6-hydroxy-5-(3-phenylpyrrolidine-1-carbonyl)pyrimidin-4(1H)-one] | 0.01 to 10

same assay, conditions: HEK293 cells stably expressing human APJ receptor; inhibition of forskolin-mediated cAMP production; read-out: Human APJ cAMP EC50 potency range

Row | SMILES | EC50 [nM]
6 | CCCCc1nc(=O)c(C(=O)N2CC[C@H](c3ccccc3)C2)c(O)n1-c1c(C2CC2)cccc1C1CC1 [Example 2, (R)-2-Butyl-1-(2,6-dicyclopropylphenyl)-6-hydroxy-5-(3-phenylpyrrolidine-1-carbonyl)pyrimidin-4(1H)-one] | 0.01 to 10
7 | CCOCc1nc(=O)c(C(=O)N2CCC(c3ccccn3)C2)c(O)n1-c1c(OC)cccc1OC (stereo not shown) [Example 3, 1-(2,6-Dimethoxyphenyl)-2-(ethoxymethyl)-6-hydroxy-5-(3-(pyridin-2-yl)pyrrolidine-1-carbonyl)pyrimidin-4(1H)-one] | 0.01 to 10
8 | COc1cccc(OC)c1-n1c(CCC2CC2)nc(=O)c(C(=O)N2CC[C@@H](c3ccccc3)C2)c1O [Example 4, (S)-2-(2-Cyclopropylethyl)-1-(2,6-dimethoxyphenyl)-6-hydroxy-5-(3-phenylpyrrolidine-1-carbonyl)pyrimidin-4(1H)-one] | 0.01 to 10
9 | COc1ccccc1C1CCN(C(=O)c2c(O)n(-c3c(OC)cccc3OC)c(-c3cncc(C)c3)nc2=O)C1 (stereo not shown) [Example 7, 1-(2,6-dimethoxyphenyl)-6-hydroxy-5-(3-(2-methoxyphenyl)pyrrolidine-1-carbonyl)-2-(5-methylpyridin-3-yl)pyrimidin-4(1H)-one] | 0.01 to 10

same assay, conditions: human APJ, cAMP accumulation; potency range class; read-out: hAPJ cAMP EC50 Potency range

Row | SMILES | EC50 [nM]
10 | CCCCc1nc(=O)c(C(=O)N2CCC(c3ncccc3F)C2)c(O)n1-c1c(OC)cccc1OC (single isomer, unassigned) [Example 366, 2-butyl-1-(2,6-dimethoxyphenyl)-5-(3-(3-fluoropyridin-2-yl)pyrrolidine-1-carbonyl)-6-hydroxypyrimidin-4(1H)-one] | 0.01 to 10

same assay, conditions: human APJ, intracellular cAMP accumulation; read-out: hAPJ cAMP EC50 Potency range

Row | SMILES | EC50 [nM]
11 | COc1cccc(OC)c1-n1c(COC(C)C)nc(=O)c(C(=O)N2CC[C@H](c3ccccc3)C2)c1O [Example 12, (R)-1-(2,6-dimethoxyphenyl)-6-hydroxy-2-(isopropoxymethyl)-5-(3-phenylpyrrolidine-1-carbonyl)pyrimidin-4(1H)-one] | 0.01 to 10
12 | COc1cccc(OC)c1-n1c(CCC(C)C)nc(=O)c(C(=O)N2CC[C@H](c3ccccc3)C2)c1O [Example 14, (R)-1-(2,6-dimethoxyphenyl)-6-hydroxy-2-isopentyl-5-(3-phenylpyrrolidine-1-carbonyl)pyrimidin-4(1H)-one] | 0.01 to 10
13 | COc1cccc(OC)c1-n1c(COC2CC2)nc(=O)c(C(=O)N2CCC(c3cccc(F)c3)C2)c1O (stereo not shown) [Example 15, 2-(cyclopropoxymethyl)-1-(2,6-dimethoxyphenyl)-5-(3-(3-fluorophenyl)pyrrolidine-1-carbonyl)-6-hydroxypyrimidin-4(1H)-one] | 0.01 to 10
14 | CCc1cccc(CC)c1-n1c(COC(C)C)nc(=O)c(C(=O)N2CC[C@H](c3ccccc3)C2)c1O [Example 17, (R)-3-(2,6-diethylphenyl)-6-hydroxy-2-(isopropoxymethyl)-5-(3-phenylpyrrolidine-1-carbonyl)pyrimidin-4(3H)-one] | 0.01 to 10
15 | COc1cccc(OC)c1-n1c(CCC(C)C)nc(=O)c(C(=O)N2CC[C@@H](c3ccccc3)C2)c1O [Example 24, (S)-1-(2,6-dimethoxyphenyl)-6-hydroxy-2-isopentyl-5-(3-phenylpyrrolidine-1-carbonyl)pyrimidin-4(1H)-one] | 0.01 to 10
16 | COc1cccc(OC)c1-n1c(CC2CC2)nc(=O)c(C(=O)N2CC[C@@H](c3ccccc3)C2)c1O [Example 31, (S)-2-(cyclopropylmethyl)-3-(2,6-dimethoxyphenyl)-6-hydroxy-5-(3-phenylpyrrolidine-1-carbonyl)pyrimidin-4(3H)-one] | 0.01 to 10
17 | COc1cccc(OC)c1-n1c(CC2CC2)nc(=O)c(C(=O)N2CC[C@H](c3ccccc3)C2)c1O [Example 32, (R)-2-(cyclopropylmethyl)-3-(2,6-dimethoxyphenyl)-6-hydroxy-5-(3-phenylpyrrolidine-1-carbonyl)pyrimidin-4(3H)-one] | 0.01 to 10
18 | C=CCCc1nc(=O)c(C(=O)N2CC[C@H](c3ccccc3)C2)c(O)n1-c1c(C)cccc1OC [Example 35, (R)-2-(but-3-en-1-yl)-6-hydroxy-3-(2-methoxy-6-methylphenyl)-5-(3-phenylpyrrolidine-1-carbonyl)pyrimidin-4(3H)-one] | 0.01 to 10
19 | COc1cccc(OC)c1-n1c(COC(C)(C)C)nc(=O)c(C(=O)N2CCC(c3ccc(F)cc3)C2)c1O (stereo not shown) [Example 44, 2-[(tert-butoxy)methyl]-1-(2,6-dimethoxyphenyl)-5-[3-(4-fluorophenyl)pyrrolidine-1-carbonyl]-6-hydroxy-1,4-dihydropyrimidin-4-one] | 0.01 to 10
20 | COc1cccc(OC)c1-n1c(COC(C)(C)C)nc(=O)c(C(=O)N2CC[C@H](c3ccccc3)C2)c1O [Example 51, 2-[(tert-butoxy)methyl]-1-(2,6-dimethoxyphenyl)-6-hydroxy-5-[(3R)-3-phenylpyrrolidine-1-carbonyl]-1,4-dihydropyrimidin-4-one] | 0.01 to 10
21 | CCCCc1nc(=O)c(C(=O)N2Cc3ccc(F)cc3C2)c(O)n1-c1c(OC)cccc1OC [Example 56, 2-butyl-1-(2,6-dimethoxyphenyl)-5-(5-fluoro-2,3-dihydro-1H-isoindole-2-carbonyl)-6-hydroxy-1,4-dihydropyrimidin-4-one] | 0.01 to 10
22 | CCCCc1nc(=O)c(C(=O)N2CC[C@H](NC(=O)OCc3ccccc3)C2)c(O)n1-c1c(OC)cccc1OC [Example 58, benzyl N-[(3S)-1-[2-butyl-1-(2,6-dimethoxyphenyl)-6-hydroxy-4-oxo-1,4-dihydropyrimidine-5-carbonyl]pyrrolidin-3-yl]carbamate] | 10 to 100

same assay, conditions: read-out: hAPJ cAMP EC50 Potency range

Row | SMILES | EC50 [nM]
23 | CCCCc1nc(=O)c(C(=O)N2CCC(c3ncccc3F)C2)c(O)n1-c1c(OC)cccc1OC (single isomer, unassigned) [Example 367, 2-butyl-1-(2,6-dimethoxyphenyl)-5-(3-(3-fluoropyridin-2-yl)pyrrolidine-1-carbonyl)-6-hydroxypyrimidin-4(1H)-one] | 0.01 to 10
24 | COc1cccc(OC)c1-n1c(COC(C)(C)C)nc(=O)c(C(=O)N2CCC(c3ccccc3C#N)C2)c1O (single isomer, unassigned) [Example 368, 2-(1-(2-(tert-butoxymethyl)-1-(2,6-dimethoxyphenyl)-6-hydroxy-4-oxo-1,4-dihydropyrimidine-5-carbonyl)pyrrolidin-3-yl)benzonitrile] | 0.01 to 10
25 | COc1cccc(OC)c1-n1c(COC(C)(C)C)nc(=O)c(C(=O)N2CCC(c3ccccc3C#N)C2)c1O (single isomer, unassigned) [Example 369, 2-(1-(2-(tert-butoxymethyl)-1-(2,6-dimethoxyphenyl)-6-hydroxy-4-oxo-1,4-dihydropyrimidine-5-carbonyl)pyrrolidin-3-yl)benzonitrile] | 0.01 to 10
26 | CCCCc1nc(=O)c(C(=O)N2CCC(c3ccc(F)cn3)C2)c(O)n1-c1c(OC)cccc1OC (single isomer, unassigned) [Example 370, 2-butyl-1-(2,6-dimethoxyphenyl)-5-(3-(5-fluoropyridin-2-yl)pyrrolidine-1-carbonyl)-6-hydroxypyrimidin-4(1H)-one] | 0.01 to 10
27 | CCCCc1nc(=O)c(C(=O)N2CCC(c3ccc(F)cn3)C2)c(O)n1-c1c(OC)cccc1OC (single isomer, unassigned) [Example 371, 2-butyl-1-(2,6-dimethoxyphenyl)-5-(3-(5-fluoropyridin-2-yl)pyrrolidine-1-carbonyl)-6-hydroxypyrimidin-4(1H)-one] | 0.01 to 10
28 | CCOCc1nc(=O)c(C(=O)N2CCC(c3ncc(F)cc3F)C2)c(O)n1-c1c(OC)cccc1OC (single isomer, unassigned) [Example 372, 5-(3-(3,5-difluoropyridin-2-yl)pyrrolidine-1-carbonyl)-1-(2,6-dimethoxyphenyl)-2-(ethoxymethyl)-6-hydroxypyrimidin-4(1H)-one] | 0.01 to 10
